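Method: 48-hour compound exposure of cells in 96-well plates, five concentrations, linear interpolation of endpoints. TGI is the concentration that stops growth completely.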
Tests used:
Assay in all cases: inhibition of tumour cell growth, NCI panel, 48 h
SK-MEL-5 melanoma = test system: SK-MEL-5 melanoma
A549 NSCLC = test system: A549 NSCLC
RPMI-8226 leukemia = test system: RPMI-8226 leukemia
M14 melanoma = test system: M14 melanoma
BT-549 breast = test system: BT-549 breast
HCC-2998 colon = test system: HCC-2998 colon
IGROV1 ovarian = test system: IGROV1 ovarian
MDA-MB-435 = test system: MDA-MB-435
SK-MEL-2 melanoma = test system: SK-MEL-2 melanoma
TK-10 renal = test system: TK-10 renal
SNB-19 CNS = test system: SNB-19 CNS
SK-OV-3 ovarian = test system: SK-OV-3 ovarian
NCI-H522 lung = test system: NCI-H522 lung
OVCAR-4 ovarian = test system: OVCAR-4 ovarian
MDA-MB-231 breast = test system: MDA-MB-231 breast
A498 renal = test system: A498 renal
OVCAR-8 ovarian = test system: OVCAR-8 ovarian
NCI/ADR-RES ovarian = test system: NCI/ADR-RES ovarian
COLO 205 colon = test system: COLO 205 colon
PC-3 prostate = test system: PC-3 prostate
U251 CNS = test system: U251 CNS
RXF 393 renal = test system: RXF 393 renal
MCF7 breast = test system: MCF7 breast
NCI-H460 lung = test system: NCI-H460 lung
HCT-116 colon = test system: HCT-116 colon
EKVX NSCLC = test system: EKVX NSCLC
MALME-3M melanoma = test system: MALME-3M melanoma
ACHN renal = test system: ACHN renal
HS 578T breast = test system: HS 578T breast
OVCAR-3 ovarian = test system: OVCAR-3 ovarian
HOP-62 NSCLC = test system: HOP-62 NSCLC
UACC-62 melanoma = test system: UACC-62 melanoma
NCI-H226 lung = test system: NCI-H226 lung
SF-539 CNS = test system: SF-539 CNS
NCI-H23 lung = test system: NCI-H23 lung
KM12 colon = test system: KM12 colon
SW-620 colon = test system: SW-620 colon
K-562 leukemia = test system: K-562 leukemia
UACC-257 melanoma = test system: UACC-257 melanoma
SF-295 CNS = test system: SF-295 CNS
T-47D breast = test system: T-47D breast
SNB-75 CNS = test system: SNB-75 CNS
HOP-92 NSCLC = test system: HOP-92 NSCLC
CAKI-1 renal = test system: CAKI-1 renal
MOLT-4 leukemia = test system: MOLT-4 leukemia
UO-31 renal = test system: UO-31 renal
SK-MEL-28 melanoma = test system: SK-MEL-28 melanoma
SN12C renal = test system: SN12C renal
786-0 renal = test system: 786-0 renal
DU-145 prostate = test system: DU-145 prostate
CCRF-CEM leukemia = test system: CCRF-CEM leukemia
LOX IMVI melanoma = test system: LOX IMVI melanoma
SF-268 CNS = test system: SF-268 CNS
HL-60(TB) leukemia = test system: HL-60(TB) leukemia
HT29 colon = test system: HT29 colon
HCT-15 colon = test system: HCT-15 colon
OVCAR-5 ovarian = test system: OVCAR-5 ovarian
MDA-N = test system: MDA-N
SR leukemia = test system: SR leukemia

## COc1cccc(/C=C\c2ccnc3ccccc23)c1
SK-MEL-5 melanoma
  TGI: > 10 µM
A549 NSCLC
  TGI: > 10 µM
RPMI-8226 leukemia
  TGI: > 10 µM
M14 melanoma
  TGI: > 10 µM
BT-549 breast
  TGI: > 10 µM
HCC-2998 colon
  TGI: > 10 µM
IGROV1 ovarian
  TGI: > 10 µM
MDA-MB-435
  TGI: > 10 µM
SK-MEL-2 melanoma
  TGI: > 10 µM
TK-10 renal
  TGI: > 10 µM
SNB-19 CNS
  TGI: > 10 µM
SK-OV-3 ovarian
  TGI: > 10 µM
NCI-H522 lung
  TGI: > 10 µM
OVCAR-4 ovarian
  TGI: > 10 µM
MDA-MB-231 breast
  TGI: > 10 µM
A498 renal
  TGI: > 10 µM
OVCAR-8 ovarian
  TGI: > 10 µM
NCI/ADR-RES ovarian
  TGI: > 10 µM
COLO 205 colon
  TGI: > 10 µM
PC-3 prostate
  TGI: > 10 µM
U251 CNS
  TGI: > 10 µM
RXF 393 renal
  TGI: > 10 µM
MCF7 breast
  TGI: > 10 µM
NCI-H460 lung
  TGI: > 10 µM
HCT-116 colon
  TGI: > 10 µM
EKVX NSCLC
  TGI: > 10 µM
MALME-3M melanoma
  TGI: > 10 µM
ACHN renal
  TGI: > 10 µM
HS 578T breast
  TGI: > 10 µM
OVCAR-3 ovarian
  TGI: > 10 µM
HOP-62 NSCLC
  TGI: > 10 µM
UACC-62 melanoma
  TGI: > 10 µM
NCI-H226 lung
  TGI: > 10 µM
SF-539 CNS
  TGI: > 10 µM
NCI-H23 lung
  TGI: > 10 µM
KM12 colon
  TGI: > 10 µM
SW-620 colon
  TGI: > 10 µM
K-562 leukemia
  TGI: > 10 µM
UACC-257 melanoma
  TGI: > 10 µM
SF-295 CNS
  TGI: > 10 µM
T-47D breast
  TGI: > 10 µM
SNB-75 CNS
  TGI: > 10 µM
HOP-92 NSCLC
  TGI: > 10 µM
CAKI-1 renal
  TGI: > 10 µM
MOLT-4 leukemia
  TGI: > 10 µM
UO-31 renal
  TGI: > 10 µM
SK-MEL-28 melanoma
  TGI: > 10 µM
SN12C renal
  TGI: > 10 µM
786-0 renal
  TGI: > 10 µM
DU-145 prostate
  TGI: > 10 µM
CCRF-CEM leukemia
  TGI: > 10 µM
LOX IMVI melanoma
  TGI: > 10 µM
SF-268 CNS
  TGI: > 10 µM
HL-60(TB) leukemia
  TGI: > 10 µM
HT29 colon
  TGI: > 10 µM
HCT-15 colon
  TGI: > 10 µM
OVCAR-5 ovarian
  TGI: > 10 µM
MDA-N
  TGI: > 10 µM

## Cc1c(O)c(Br)c(C)c(O)c1Br (tested in a mixture with another compound)
SK-MEL-5 melanoma
  TGI: 11.4 µM
A549 NSCLC
  TGI: 60 µM
RPMI-8226 leukemia
  TGI: 6.06 µM
M14 melanoma
  TGI: 3.1 µM
BT-549 breast
  TGI: 9.7 µM
IGROV1 ovarian
  TGI: 20.5 µM
MDA-MB-435
  TGI: 3.44 µM
SK-MEL-2 melanoma
  TGI: 10.7 µM
TK-10 renal
  TGI: 3.01 µM
SNB-19 CNS
  TGI: 41.7 µM
SK-OV-3 ovarian
  TGI: 29.4 µM
SR leukemia
  TGI: 3.28 µM
OVCAR-4 ovarian
  TGI: 3.04 µM
MDA-MB-231 breast
  TGI: 25.5 µM
A498 renal
  TGI: 29 µM
NCI/ADR-RES ovarian
  TGI: > 100 µM
COLO 205 colon
  TGI: 3.6 µM
PC-3 prostate
  TGI: 4.23 µM
U251 CNS
  TGI: 24.4 µM
RXF 393 renal
  TGI: 3.33 µM
NCI-H460 lung
  TGI: 16.1 µM
MALME-3M melanoma
  TGI: 3.55 µM
ACHN renal
  TGI: 3.05 µM
HS 578T breast
  TGI: 19.9 µM
HOP-62 NSCLC
  TGI: 40.3 µM
UACC-62 melanoma
  TGI: 10.8 µM
NCI-H226 lung
  TGI: 14.8 µM
SF-539 CNS
  TGI: 10 µM
NCI-H23 lung
  TGI: 4.62 µM
KM12 colon
  TGI: 41.2 µM
SW-620 colon
  TGI: 6.83 µM
K-562 leukemia
  TGI: 11.6 µM
UACC-257 melanoma
  TGI: 3.02 µM
SF-295 CNS
  TGI: 37.1 µM
T-47D breast
  TGI: 5.54 µM
SNB-75 CNS
  TGI: 29.3 µM
HOP-92 NSCLC
  TGI: 3.03 µM
CAKI-1 renal
  TGI: 3.67 µM
MOLT-4 leukemia
  TGI: 3.09 µM
UO-31 renal
  TGI: 3.28 µM
SK-MEL-28 melanoma
  TGI: 3.56 µM
786-0 renal
  TGI: 3.2 µM
DU-145 prostate
  TGI: 5.15 µM
CCRF-CEM leukemia
  TGI: 0.807 µM
LOX IMVI melanoma
  TGI: 3.44 µM
SF-268 CNS
  TGI: 8.45 µM
HL-60(TB) leukemia
  TGI: 3.22 µM
HT29 colon
  TGI: 4.78 µM
OVCAR-5 ovarian
  TGI: 34.9 µM
MDA-N
  TGI: 3.26 µM

— PubChem BioAssay (NCI)
